Read-outs that look alike come from different tables or passages of the source. Marks after values point to notes of the source that are not given here.
Test system: biomarker (antibody) in serum samples from patients with symptoms of tuberculosis
Assay type: binding, human

For `CCCCCCCCCCCCCCCCCCCCCC[C@@H](C(=O)OC[C@H]1O[C@H](OC)[C@@H](O)[C@@H]1O)[C@H](O)CCCCCCCCCCCCCCCCC[C@H]1C[C@H]1CCCCCCCCCCCCCCCC[C@@H](OC)[C@@H](C)CCCCCCCCCCCCCCCCCC` [Antigen E], the “ELISA absorbance at 492 nm” value (serum sample 1 TB+) was 0.42*, the “ELISA absorbance at 492 nm” value (serum sample 2 TB+) was 0.36* and the “ELISA absorbance at 492 nm” value (serum sample 3 TB+) was 0.77*. For the same compound, the “ELISA absorbance at 492 nm” value (serum sample 4 TB+) was 0.90*, the “ELISA absorbance at 492 nm” value (serum sample 5 TB+) was 0.38* and the “ELISA absorbance at 492 nm” value (serum sample 6 TB+) was 0.54*. For the same compound, the “ELISA absorbance at 492 nm” value (serum sample 7 TB+) was 1.15*, the “ELISA absorbance at 492 nm” value (serum sample 8 TB+) was 0.69* and the “ELISA absorbance at 492 nm” value (serum sample 9 TB+) was 0.56*. For the same compound, the “ELISA absorbance at 492 nm” value (serum sample 10 TB−) was 0.35, the “ELISA absorbance at 492 nm” value (serum sample 11 TB−) was 0.45* and the “ELISA absorbance at 492 nm” value (serum sample 12 TB−) was 0.29. For the same compound, the “ELISA absorbance at 492 nm” value (serum sample 13 TB−) was 0.34, the “ELISA absorbance at 492 nm” value (serum sample 14 TB−) was 0.58* and the “ELISA absorbance at 492 nm” value (serum sample 15 TB−) was 0.37*. The “ELISA absorbance at 492 nm” value (serum sample 16 TB−) was 0.42*, the “ELISA absorbance at 492 nm” value (serum sample 17 TB−) was 0.47* and the “ELISA absorbance at 492 nm” value (serum sample 18 TB−) was 0.25. For the same compound, the “ELISA absorbance at 492 nm” value (serum sample 19 TB−) was 0.31, the “ELISA absorbance at 492 nm” value (serum sample 20 TB−) was 0.38* and the “ELISA absorbance at 492 nm” value (serum sample 21 TB−) was 0.35. The “ELISA absorbance at 492 nm” value (serum sample 22 TB−) was 0.24, the “ELISA absorbance at 492 nm” value (serum sample 23 TB−) was 0.35* and the “ELISA absorbance at 492 nm” value (serum sample 24 TB−) was 0.26. For the same compound, the “ELISA absorbance at 492 nm” value (serum sample 25 TB−) was 0.18, the “ELISA absorbance at 492 nm” value (serum sample 26 TB−) was 0.24 and the “ELISA absorbance at 492 nm” value (serum sample 27 TB−) was 0.33. For the same compound, the “ELISA absorbance at 492 nm” value (serum sample 28 TB−) was 0.23, the “ELISA absorbance at 492 nm” value (serum sample 29 TB−) was 0.29 and the “ELISA absorbance at 492 nm” value (serum sample 30 TB−) was 0.24. For the same compound, the “ELISA absorbance at 492 nm” value (serum sample 31 TB−) was 0.30, the “ELISA absorbance at 492 nm” value (serum sample 32 TB−) was 0.57* and the “ELISA absorbance at 492 nm” value (serum sample 33 TB−) was 0.46*. The “ELISA absorbance at 492 nm” value (serum sample 34 TB−) was 0.51*, the “ELISA absorbance at 492 nm” value (serum sample 35 TB−) was 0.26 and the “ELISA absorbance at 492 nm” value (serum sample 36 TB−) was 0.23. For the same compound, the “ELISA absorbance at 492 nm” value (serum sample 37 TB−) was 0.41*, the “ELISA absorbance at 492 nm” value (serum sample 38 TB−) was 0.40* and the “ELISA absorbance at 492 nm” value (serum sample 39 TB−) was 0.31. The “ELISA absorbance at 492 nm” value (serum sample 40 TB−) was 0.25, the “ELISA absorbance at 492 nm” value (serum sample 41 TB−) was 0.33 and the “ELISA absorbance at 492 nm” value (serum sample 42 TB−) was 0.42*. The “ELISA absorbance at 492 nm” value (serum sample 43 TB−) was 0.29, the “ELISA absorbance at 492 nm” value (serum sample 44 TB−) was 0.67* and the “ELISA absorbance at 492 nm” value (serum sample 45 TB−) was 0.35*. The “ELISA absorbance at 492 nm” value (serum sample 46 TB−) was 0.26, the “ELISA absorbance at 492 nm” value (serum sample 47 TB−) was 0.41* and the “ELISA absorbance at 492 nm” value (serum sample 48 TB−) was 0.17. For the same compound, the “ELISA absorbance at 492 nm” value (serum sample 49 TB−) was 0.25, the “ELISA absorbance at 492 nm” value (serum sample 50 TB−) was 0.30 and the “ELISA absorbance at 492 nm” value (serum sample 51 TB−) was 0.18. The “ELISA absorbance at 492 nm” value (serum sample 52 TB−) was 0.26, the “ELISA absorbance at 492 nm” value (serum sample 53 TB−) was 0.25 and the “ELISA absorbance at 492 nm” value (serum sample 54 TB−) was 0.20. For the same compound, the “ELISA absorbance at 492 nm” value (serum sample 55 TB−) was 0.22, the “ELISA absorbance at 492 nm” value (serum sample 56 TB−) was 0.31 and the “ELISA absorbance at 492 nm” value (serum sample 57 TB−) was 0.29. The “ELISA absorbance at 492 nm” value (serum sample 58 TB−) was 0.28, the “ELISA absorbance at 492 nm” value (serum sample 59 TB−) was 0.25 and the “ELISA absorbance at 492 nm” value (serum sample 60 TB−) was 0.29. The “ELISA absorbance at 492 nm” value (serum sample 61 TB−) was 0.34, the “ELISA absorbance at 492 nm” value (serum sample 62 TB−) was 0.35* and the “ELISA absorbance at 492 nm” value (serum sample 63 TB−) was 0.22. For the same compound, the “ELISA absorbance at 492 nm” value (serum sample 64 TB−) was 3.98*.

With `CCCCCCCCCCCCCCCCCCCCCCCC[C@@H](C(=O)OC[C@H]1O[C@H](OC)[C@@H](O)[C@@H]1O)[C@H](O)CCCCCCCCCCC[C@H]1CC1CCCCCCCCCCCCCC[C@H]1C[C@H]1CCCCCCCCCCCCCCCCCCCC` (some centres unmarked) [Antigen F] the “ELISA absorbance at 492 nm” value (serum sample 1 TB+) was 0.74*, the “ELISA absorbance at 492 nm” value (serum sample 2 TB+) was 0.76* and the “ELISA absorbance at 492 nm” value (serum sample 3 TB+) was 0.99*. The “ELISA absorbance at 492 nm” value (serum sample 4 TB+) was 0.97*, the “ELISA absorbance at 492 nm” value (serum sample 5 TB+) was 0.99* and the “ELISA absorbance at 492 nm” value (serum sample 6 TB+) was 1.39*. For the same compound, the “ELISA absorbance at 492 nm” value (serum sample 7 TB+) was 1.97*, the “ELISA absorbance at 492 nm” value (serum sample 8 TB+) was 1.67* and the “ELISA absorbance at 492 nm” value (serum sample 9 TB+) was 1.09*. For the same compound, the “ELISA absorbance at 492 nm” value (serum sample 10 TB−) was 0.59, the “ELISA absorbance at 492 nm” value (serum sample 11 TB−) was 0.92* and the “ELISA absorbance at 492 nm” value (serum sample 12 TB−) was 0.84*. The “ELISA absorbance at 492 nm” value (serum sample 13 TB−) was 0.60, the “ELISA absorbance at 492 nm” value (serum sample 14 TB−) was 1.30* and the “ELISA absorbance at 492 nm” value (serum sample 15 TB−) was 0.64. For the same compound, the “ELISA absorbance at 492 nm” value (serum sample 16 TB−) was 0.56, the “ELISA absorbance at 492 nm” value (serum sample 17 TB−) was 0.81* and the “ELISA absorbance at 492 nm” value (serum sample 18 TB−) was 0.68. The “ELISA absorbance at 492 nm” value (serum sample 19 TB−) was 0.71*, the “ELISA absorbance at 492 nm” value (serum sample 20 TB−) was 1.03* and the “ELISA absorbance at 492 nm” value (serum sample 21 TB−) was 0.61. For the same compound, the “ELISA absorbance at 492 nm” value (serum sample 22 TB−) was 0.66, the “ELISA absorbance at 492 nm” value (serum sample 23 TB−) was 0.81* and the “ELISA absorbance at 492 nm” value (serum sample 24 TB−) was 0.62. For the same compound, the “ELISA absorbance at 492 nm” value (serum sample 25 TB−) was 0.21, the “ELISA absorbance at 492 nm” value (serum sample 26 TB−) was 0.72 and the “ELISA absorbance at 492 nm” value (serum sample 27 TB−) was 0.61. For the same compound, the “ELISA absorbance at 492 nm” value (serum sample 28 TB−) was 0.38, the “ELISA absorbance at 492 nm” value (serum sample 29 TB−) was 0.41 and the “ELISA absorbance at 492 nm” value (serum sample 30 TB−) was 0.39. For the same compound, the “ELISA absorbance at 492 nm” value (serum sample 31 TB−) was 0.51, the “ELISA absorbance at 492 nm” value (serum sample 32 TB−) was 0.91* and the “ELISA absorbance at 492 nm” value (serum sample 33 TB−) was 0.42. For the same compound, the “ELISA absorbance at 492 nm” value (serum sample 34 TB−) was 0.49, the “ELISA absorbance at 492 nm” value (serum sample 35 TB−) was 0.38 and the “ELISA absorbance at 492 nm” value (serum sample 36 TB−) was 0.28. The “ELISA absorbance at 492 nm” value (serum sample 37 TB−) was 0.55, the “ELISA absorbance at 492 nm” value (serum sample 38 TB−) was 0.52 and the “ELISA absorbance at 492 nm” value (serum sample 39 TB−) was 0.35. For the same compound, the “ELISA absorbance at 492 nm” value (serum sample 40 TB−) was 0.35, the “ELISA absorbance at 492 nm” value (serum sample 41 TB−) was 0.66 and the “ELISA absorbance at 492 nm” value (serum sample 42 TB−) was 0.55. For the same compound, the “ELISA absorbance at 492 nm” value (serum sample 43 TB−) was 0.30, the “ELISA absorbance at 492 nm” value (serum sample 44 TB−) was 0.98* and the “ELISA absorbance at 492 nm” value (serum sample 45 TB−) was 0.43. The “ELISA absorbance at 492 nm” value (serum sample 46 TB−) was 0.31, the “ELISA absorbance at 492 nm” value (serum sample 47 TB−) was 0.56 and the “ELISA absorbance at 492 nm” value (serum sample 48 TB−) was 0.32. For the same compound, the “ELISA absorbance at 492 nm” value (serum sample 49 TB−) was 0.51, the “ELISA absorbance at 492 nm” value (serum sample 50 TB−) was 0.37 and the “ELISA absorbance at 492 nm” value (serum sample 51 TB−) was 0.21. The “ELISA absorbance at 492 nm” value (serum sample 52 TB−) was 0.36, the “ELISA absorbance at 492 nm” value (serum sample 53 TB−) was 0.26 and the “ELISA absorbance at 492 nm” value (serum sample 54 TB−) was 0.27. The “ELISA absorbance at 492 nm” value (serum sample 55 TB−) was 0.27, the “ELISA absorbance at 492 nm” value (serum sample 56 TB−) was 0.73* and the “ELISA absorbance at 492 nm” value (serum sample 57 TB−) was 0.37. The “ELISA absorbance at 492 nm” value (serum sample 58 TB−) was 0.41, the “ELISA absorbance at 492 nm” value (serum sample 59 TB−) was 0.45 and the “ELISA absorbance at 492 nm” value (serum sample 60 TB−) was 0.44. The “ELISA absorbance at 492 nm” value (serum sample 61 TB−) was 0.41, the “ELISA absorbance at 492 nm” value (serum sample 62 TB−) was 0.30 and the “ELISA absorbance at 492 nm” value (serum sample 63 TB−) was 0.25. The “ELISA absorbance at 492 nm” value (serum sample 64 TB−) was 0.29.

From patent publication US11162944B2, “Compositions and methods” (priority 2015, dated 2021)
